For orientation: Kd means a measure of binding affinity in units of concentration. For orientation: EC50 means the concentration at which the effect is half-maximal.

One test concerns the target T1, syntrophin PDZ domain (Mus musculus, UniProt Q61234).
T1 construct: syn PDZ1; made in house; host or cells: E. coli BL-21 Rosetta (DE3)pLysS, pMAL-c5X vector
T1 sequence (Q61234 77-171): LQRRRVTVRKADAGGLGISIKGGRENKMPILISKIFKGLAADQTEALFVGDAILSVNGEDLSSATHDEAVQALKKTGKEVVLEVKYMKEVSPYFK
Put plainly: Fluorescence anisotropy PDZ-ligand binding, syntrophin, direct and competition. Also noted: key to Syn Kd (μM), PDZ affinity (Kp): nb indicates no binding. The settings on record: for Kd: read-out: Syn Kd (μM), PDZ affinity (Kp). Here is the method: (§1) Probes were generated by annealing an unlabeled top oligo to a labeled bottom oligo in a 2:1 ratio, while binding competitor oligos were generated using unlabeled top and bottom oligos mixed at equimolar ratios. For PDZ binding experiments, fluorescein-labeled peptide probe (ordered from Selleckhem) used for PDZ binding measurements contained the sequence VKESLV* (SEQ ID NO: 6), where the N-terminus was labeled with a FITC conjugate. Probe concentration was assessed by measuring Abs490. Competitor peptides were purified as MBP-ZF43-8 fusions (see e.g., FIG. 5A-FIG. 5B, FIG. 7A-FIG. 7B).
(§2) All assays were conducted in 20 mM Tris, pH 7.5, 100 mM […], 50 μM ZnCl2 buffer at 25° C. Proteins, probes, and competitor oligos were added to a final volume of 300 μL. Probes were used at 10 nM in all experiments. For complex assembly experiments (FIG. 1C), indicated concentrations of MBP-ZF43-8 harboring a VSKESLV* ligand (SEQ ID NO: 120) (see e.g., FIG. 5A-FIG. 5B, FIG. 7A-FIG. 7B) were titrated against 5 μM concentrations of clamp. Mixtures were allowed to equilibrate at 25° C. for 10 min in Costar black 96-well plates prior to reading. Fluorescence anisotropy (FA) measurements were made at 494 nm using a SpectraMax M5 (Molecular Devices) fluorescence plate reader. For all measurements, anisotropy (r) was calculated using the following equation, wherein I∥ and I⊥ are parallel and perpendicular fluorescence, respectively:
(§3) Fraction of bound probe was calculated using the following equation, wherein rbound and rfree are the anisotropy values for fully bound and fully unbound probe, respectively:
(§4) Each of these values was measured independently of binding curves with either a 100× excess or absence of ZF (in the case of ZF-oligo binding) or PDZ (in the case of PDZ-ligand binding). Q is the ratio of total fluorescence (measured at 454 nm) under rbound and rfree conditions. To obtain binding constants for ZF-probe and PDZ-probe interactions, binding data were fit to the following quadratic equation, wherein [P] is the total concentration of either ZF or PDZ, [probe] is the total concentration of the oligo or peptide probe, and Kd is the dissociation constant of the interaction:
(§5) Competition binding curves were calculated by fitting competition binding curves to the following cubic equation, wherein fb is fraction probe bound, [L*T] is the total probe concentration, [RT] and [R] are total and free concentrations of the ZF, respectively, while [LT] and [L] are total and free concentrations of competitor. Kd1 is the affinity for TF and probe, while Kd2 is the affinity between TF and competitor:
(§6) As a first step toward construction of a molecular assembly scheme amenable to modeling, a set of part variants was identified comprising a range of Kt and Kp values, and then in vitro binding experiments were conducted to directly measure their binding affinities (see e.g., FIG. 6, FIG. 7A, FIG. 7B). […] For each ZF, previously described R-to-A ZF backbone mutations were used as affinity variants (see e.g., Khalil et al., Cell. 150, 647-658 2012). DBM affinity series (DBM1, DBM2, etc.) for both ZFs by were also generated by systematically mutating nucleotides both in the core and directly flanking the core 9-bp recognition sequence (ZF 1: a[…]c (SEQ ID NO: 99); ZF2: a[…]c (SEQ ID NO: 102)). Similarly, PDZ-ligand affinities were measured for two domains (syntrophin ‘syn’ and erbin ‘erb’) and their respective partner ligands. For each pair, ligands of various affinities were obtained from published reports (S1, S2, . . .; E1, E2, . . . )12, 13 (see e.g., FIG. 7A, FIG. 7B). Altogether, this yielded a set of component interactions consisting of 15 ZF-DNA and 13 PDZ-ligand pairs with in vitro-measured values ranging from mid μM to low nM, permitting broad, tunable control of Kt and Kp.
(§7) PDZ-ligand binding constants were measured in vitro by fluorescence anisotropy. Recombinant proteins were purified as described herein. […]
In general terms: Polarisation of emitted light reports the rotation of a fluorescent probe.

A further test addresses T2, erbin PDZ domain (Homo sapiens, UniProt Q96RT1, V1340R).
T2 construct: made in house; host or cells: E. coli BL-21 Rosetta (DE3)pLysS, pMAL-c5X vector
Put plainly: Fluorescence anisotropy PDZ-ligand competition binding, erbin. On the set-up: key to Erb Kd (μM), PDZ affinity (Kp): nb indicates no binding. The settings on record: for Kd: read-out: Erb Kd (μM), PDZ affinity (Kp). As to the method: as §1, §2, §3, §4, §5, §6, §7

Test [1] concerns HEK293FT reporter cell line. Put plainly: Clamp assembly-mediated transcriptional activation, mCherry reporter by flow cytometry. It counts as cell-based. The conditions noted are these: transfected into HEK293FT reporter line, 4 tandem DBMs, pMinCMV. The source says: In the work in yeast, clamp-dependent assembly was initially based on the ability of a zinc finger-based synthetic transcription factor (synTF) and clamp to induce higher reporter activation when co-expressed. To test the possibility that assembly-mediated gene expression also works in mammalian cells, a similar approach was taken. Expression plasmids were generated for synTF (sequence descriptions in Example 7) and a 2-unit (nc=2) clamp (sequence description in Example 7), both driven by a strong UBC promoter (pUBC, Ubiquitin C promoter). A corresponding HEK293FT reporter cell line was generated by lentiviral transduction of a synTF-responsive reporter construct, composed of 4 tandem 20-bp DNA-binding motifs (DBMs) upstream of a minimal CMV promoter (pMinCMV) driving expression of an mCherry fluorescent protein.
Different combinations of the synTF and clamp expression plasmids were transfected into the HEK293FT reporter line, and mCherry reporter expression was assayed using flow cytometry (see e.g., FIG. 19).

For test [2], the system named is DBM oligo probe (FITC labeled). Description: In vitro complex assembly: synTF titration of DBM oligo probe with or without clamp (fluorescence anisotropy). It counts as binding.
Text: FIG. 1A-FIG. 1E is a series of graphs and schematics showing the design scheme for assembly-mediated regulatory control of synthetic gene circuits. (FIG. 1A) Nodes in cellular networks use one-to-one regulatory interactions to execute simple computation-al tasks (top); cooperative interactions within multivalent assemblies enable complex, non-linear signal processing (bottom). (FIG. 1B) Design of synthetic TF regulatory assemblies. Complexes are built from interaction domains (ZF and PDZ) and their respective binding partners (DBM and PDZ ligand). Clamp-mediated synTF complex-formation (TA, transcriptional activator domain drives coding sequence transcription). Interaction affinities (Kt and Kp) and the number of repeated complex units (nc) determine thermodynamics of assembly. (FIG. 1C) In vitro assembly of purified cooperative complex components. Fluorescence anisotropy for synTF titration of DBM oligo probe ([…]) and converted to fraction probe bound (Nb, synTFs with binding-deficient PDZ ligand mutants; nc, number of PDZ domains per clamp and DBMs probe). Points represent mean values for three measurements±SE. (FIG. 1D) Testing in vivo complex assembly in yeast using a synthetic gene circuit (GFP output). All genes are chromosomally-integrated (left; see e.g., Table 4). Small molecule-inducible expression systems (ncTET and ncZEV) control intracellular expression levels (see e.g., FIG. 8A, FIG. 8B) of synTF (induced by ATc, 2-500 ng/mL) and clamp (EST, 0.05-12.5 nM), respectively. Adjusting molecular features of assembly (Kt, Kp, nc) tunes overall circuit transfer function (right). (FIG. 1E) Parameterization of thermodynamic complex assembly model. Dose response data for circuit configurations with various Kt, Kp, nc values were fit to a thermodynamic model (see e.g., FIG. 10, FIG. 11); regression plot showing residual from fit are shown at the right. MAE, mean absolute error.
Thus, synTF binding cooperativity is enhanced by the clamp and scales in magnitude with complex size.
as §2, with “For complex assembly experiments (FIG. 1C), indicated concentrations of MBP-ZF43-8 harboring a VSKESLV* ligand (SEQ ID NO: 120) (see e.g., FIG. 5A-FIG. 5B, FIG. 7A-FIG. 7B) were titrated against 5 μM concentrations of clamp.” left out
Species used in the binding assay are described in FIG. 5A and FIG. 5B, and descriptions for protein purification and the binding assay are described elsewhere herein. […]

T2 sequence (Q96RT1 with tags, fused parts or gaps V1340R): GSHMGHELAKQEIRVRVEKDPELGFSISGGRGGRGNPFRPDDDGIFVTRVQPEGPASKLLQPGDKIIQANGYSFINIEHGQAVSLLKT

Regarding IRETIL, the dissociation constant Kd at syntrophin PDZ domain is 0.18 µM. For the same molecule, at erbin PDZ domain, the “Erb Kd (μM), PDZ affinity (Kp)” value is given as “nb”.
In the case of WLVTWV, the “Syn Kd (μM), PDZ affinity (Kp)” value on syntrophin PDZ domain is reported as “nb”. Also, the Kd on erbin PDZ domain was 0.1 µM.
As for HLETFF, at syntrophin PDZ domain, the Kd came out at 43.2 µM. Moreover, the “Erb Kd (μM), PDZ affinity (Kp)” value at erbin PDZ domain is listed as “nb”.
As for PVDSWV, the Kd was 1.57 µM on syntrophin PDZ domain and 0.42 µM on erbin PDZ domain.
Consider IRETIV, for which the Kd stood at 0.88 µM at syntrophin PDZ domain and 3.46 µM on erbin PDZ domain.
As for VKEAAA, the “Syn Kd (μM), PDZ affinity (Kp)” value at syntrophin PDZ domain is on record as “nb”. Moreover, on erbin PDZ domain, the “Erb Kd (μM), PDZ affinity (Kp)” value is reported as “nb”.
As to VKESLV, the values for the Kd at syntrophin PDZ domain and on erbin PDZ domain were 1.97 µM and 5.71 µM, respectively.
For IRETII, the Kd at syntrophin PDZ domain was determined as 0.062 µM. For the same molecule, the “Erb Kd (μM), PDZ affinity (Kp)” value at erbin PDZ domain is “nb”.
With VKEALV, on syntrophin PDZ domain, the Kd amounted to 27.3 µM. For the same molecule, the “Erb Kd (μM), PDZ affinity (Kp)” value at erbin PDZ domain is on record as “nb”.
As to WLKTWV, the “Syn Kd (μM), PDZ affinity (Kp)” value at syntrophin PDZ domain is recorded as “nb”. In addition, the Kd at erbin PDZ domain was determined as 0.33 µM.
With IRWTIV, the Kd on syntrophin PDZ domain was determined as 0.49 µM; at erbin PDZ domain it was 1.73 µM.

B1: clamp: SEQ ID NO: 144, 2-unit clamp of α-syntrophin PDZ domains with 3x FLAG tag and NLS (protein)
chain: MDYKDHDGDYKDHDIDYKDDDDKMAPKKKRKVVELQRRRVTVRKADAGGLGISIKGGRENKMPILISKIFKGLAADQTEALFVGDAILSVNGEDLSSATHDEAVQALKKTGKEVVLEVKYMKEVSPYFKGSGGSSGSGPGSSGGSGPGSGSSGGSGSGPGSGGSSGPGSETELVELQRRRVTVRKADAGGLGISIKGGRENKMPILISKIFKGLAADQTEALFVGDAILSVNGEDLSSATHDEAVQALKKTGKEVVLEVKYMKEVSPYFKG
As for B1, in test [1], the mCherry reporter expression entry is on record as “enhancement of reporter activation”.

B2: synTF: MBP-ZF43-8 fusion harboring a VKESLV-type syntrophin PDZ ligand, titrated against DBM oligo probe (protein)
chain: GEAPFQCRICMANFSRQDRLDRHTRTHTGEKPFQCRICMANFSQKEHLAGHLRTHTGEKPFQCRICMANFSRRDNLNRHLKTHLRGSGSGVKESLV
modifications: left off: large carriers
notes: MBP-ZF43-8 fusion harboring a VKESLV-type syntrophin PDZ ligand, titrated against DBM oligo probe
Turning to B2, the “cooperativity (nH)” value worked out at 1.81 in test [2] (nc=2 probe, two-PDZ clamp added (2 μM)); 1.07 in test [2] (nc=2 probe, without clamp); 2.55 in test [2] (nc=3 probe and three-repeat clamp). For the same molecule, in test [2] (nc=2 probe, without clamp, read-out: affinity of synTFs for the probe (EC50)), the concentration for a half-maximal effect (EC50) came out at 210 nM.

The values above are taken from patent publication US11781149B2, “Systems and methods for control of gene expression” (TRUSTEES OF BOSTON UNIVERSITY, priority 2018, dated 2023).
